Test results from patent publication US8663646B2, “P53 peptide vaccine” (priority 2007, dated 2014).
Where no end group is shown, it is not given here.

Tests used:
proteasome = assay: Proteasome processing, summarised over proteasome types (Table 5); format: biochemical; conditions: 30 residue long precursor peptides
Method: (§1) In the context of the invention, “being inefficiently processed by a proteasome” preferably means that within the first hour of digestion by a proteasome less than 1% of total digested peptide is found. The processing by a proteasome is preferably assessed by incubating a purified proteasome, more preferably a human proteasome with a peptide comprising the potential CTL epitope (30 amino acid length approximately) in a proteasome digestion buffer during at least one hour at 37° C. The reaction is subsequently stopped by adding trifluoroacetic acid. Analysis of the digested peptides is performed with electrospray ionization mass spectrometry (see example 1). Even more preferably, the human proteasome is an immunoproteasome from B-LCL JY cells (Kessler J H et al. 2001).
(§2) 20S immuno-proteasomes were purified from a mouse B-cell line (RMA) and a human B-LCL cell line (JY) and 20S household proteasomes were purified from human tumor cell line (HeLa) as described (Kessler J H et al 2001). To assess kinetics, digestions were performed with different incubation periods as indicated. Briefly, peptides containing the (potential) CTL epitopes (30 mers, 20 μg) were incubated with 1 μg of purified proteasome at 37° C. for 1 h, 4 h and 24 h in 300 μl proteasome digestion buffer, trifluoroacetic acid (30 μl) was added to stop the digestion and samples were stored at −20° C. before mass spectrometric analysis. Electrospray ionization mass spectrometry was performed on a hybrid quadrupole time-of-flight mass spectromter, a Q-TOF (Micromass), equipped with an on-line nanoelectrospray interface with an approximate flow rate of […] as described (Kessler J H et al 2001). The peaks in the mass spectrum were searched in the digested precursor peptide using the Biolynx/proteins software (Micromass) supplied with the mass spectrometer. The intensity of the peaks in the mass spectra was used to establish the relative amounts of peptides generated after proteasome digestion. The relative amounts of the peptides are given as a percentage of the total amount of peptide digested by the proteasome at the indicated incubation time. Major cleavage sites are defined as more than >1% of total digested peptide within the first hour.

HLA-A*0101 [1] = biological target: T1, HLA-A*0101 (Homo sapiens, UniProt P04439, A114D/A174V/A182V/D101N/D185E/E176A/E190D/L180R/Q94H/R68K/S129P/T187R/V100A/V91M/W191G); assay: Stability of peptide-HLA complex, binding at 4° C. and 20° C., HLA-A*0101; conditions: for HLA binding Stability (Table 5): HLA type A1; for Peptide Binding Stability: HLA-A*0101, IC50 at 20° C. vs 4° C.
T1 construct: B-cell lines used are: CAA (A*0101), EKR (A*0301), BVR (A*1101), VIJF (A*2401); endogenous in cells; host or cells: B-cell line CAA

HLA-A*0101 [2] = biological target: T1, HLA-A*0101; assay: Competition based cellular binding assay, HLA-A*0101 (B-cell line CAA)
[3] = biological target: T2, 20S immuno-proteasomes from human B-LCL cell line (JY) (Homo sapiens, UniProt P28062+P28065+P40306); assay: In vitro proteasome mediated digestion of 30-mers, mass spectrometry, immunoproteasome JY; format: biochemical; conditions: 30 residue long precursor peptides
T2 construct: purified from a mouse B-cell line (RMA) and a human B-LCL cell line (JY); endogenous in cells; host or cells: B-LCL JY cells; 20S proteasome purified from them
Summary of the method: (§3)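 30-mer peptides (20 μg) digested with 1 μg purified 20S proteasome (JY or RMA immunoproteasome, HeLa household proteasome) at 37° C for 1, 4 and 24 h, stopped with TFA. Nano-ESI Q-TOF MS; fragments quantified by peak intensity as percent of total digested peptide per time point; major cleavage site >1% within first hour.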

[4] = biological target: T3, 20S household proteasomes from human tumor cell line (HeLa) (Homo sapiens, UniProt P28072+P28074+Q99436); assay: In vitro proteasome mediated digestion of 30-mers, mass spectrometry, household proteasome HeLa; format: biochemical; conditions: 30 residue long precursor peptides
T3 construct: 20S household proteasomes were purified from human tumor cell line (HeLa); endogenous in cells; host or cells: HeLa cells; 20S proteasome purified from them
Method: as §1, §2

HLA-A*0201 = HLA-A*0201 (Homo sapiens, UniProt P04439, D140Y/D185E/D98H/E176V/E277Q/G131W/G231S/I119V/I121R/I166T/I218V/L300P/L318F/N151K/N90K/P208A/P217A/Q86G/Q94H/R138H/R169H/T345S); assay: Peptide stabilization for HLA-A*0201; format: binding; conditions: for HLA binding Stability (Table 5): HLA type A2; for Peptide Binding Stability: HLA-A*0201, p53 peptides
[5] = biological target: T4, 20S immuno-proteasomes from mouse B-cell line (RMA) (Mus musculus, UniProt O35955+P28063+P28076); assay: In vitro proteasome mediated digestion of 30-mers, mass spectrometry, immunoproteasome RMA; format: biochemical; conditions: 30 residue long precursor peptides
T4 construct: 20S immuno-proteasomes were purified from a mouse B-cell line (RMA); endogenous in cells; host or cells: RMA cells; 20S proteasome purified from them
Summary of the method: as §3

HLA-A*2401 [6] = assay: Competition based cellular binding assay, HLA-A*2401 (B-cell line VIJF); set-up: species or system human; conditions: HLA-A*2401, IC50 category
HLA-A*2401 [7] = assay: Stability of peptide-HLA complex, binding at 4° C. and 20° C., HLA-A*2401; set-up: species or system human; conditions: HLA-A*2401; IC50 at 20° C. vs 4° C.
Method: Stability of other peptide-HLA complexes was preferably determined as follows. […] Peptides of >50% of the initial complexes was lost within 2 hours were considered unstable. […] The rest was designated as unstable peptide binding.
Peptides 8-11 residues in length were selected based on typical anchor residues for HLA-A*0101, A*0301, A*1101 and HLA-A*2401 (Rammensee H G et al). The capacity of peptides to bind was tested in a competition based cellular binding assay as previously described (van der Burg S H et al 1995). FL-labeled reference peptides were synthesized as Cys-derivative (van der Burg S H et al 1995). Fluorescence labeled reference peptides used were: YLEPAC(FL)AK (SEQ ID NO: 87) (HLA-A*0101) and KVFPC(FL)ALINK (SEQ ID NO: 88) (HLA-A*1101) (Sette A et al), KVFPC(FL)ALINK (SEQ ID NO: 89) (HLAA*0301) (van der Burg S H et al 1995) and RYLKC(FL)QQLL (SEQ ID NO: 90) (A*2401) (Dai L C et al). B-cell lines used are: CAA (A*0101), EKR (A*0301), BVR (A*1101), VIJF (A*2401). The relative binding capacity of the peptides is expressed as the peptide concentration to inhibit 50% (1050) of the binding of the reference peptide. […] Peptide stabilization for HLA-A*0201 was performed as previously described (van der Burg S H et al, 1996). Peptides of >50% of the initial complexes was lost within 2 hours were considered unstable. Stability of other peptide-HLA complexes was determined as follows. Peptide binding was performed at 4° C. and 20° C. and 1050 were determined. […] The rest was designated as unstable peptide binding.

HLA-A*0301 = biological target: T5, HLA-A*0301 (Homo sapiens, UniProt P04439); assay: Stability of peptide-HLA complex, binding at 4° C. and 20° C., HLA-A*0301
T5 construct: B-cell lines used are: CAA (A*0101), EKR (A*0301), BVR (A*1101), VIJF (A*2401); endogenous in cells; host or cells: B-cell line EKR
Summary of the method: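 Competition binding used B-cell lines CAA (A*0101), EKR (A*0301), BVR (A*1101) and VIJF (A*2401) against fluorescein-labelled reference peptides. IC50 is the peptide concentration inhibiting 50% of reference binding. Binding was run at 4 °C and 20 °C with IC50 determined at each; complexes losing >50% within 2 hours were deemed unstable.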

Peptide Binding Stability (HLA-A*0201)	Compound	generation / processing by household and immunoproteasomes, in words (proteasome)	HLA binding Stability (Table 5) (HLA-A*0101 [1])	Peptide Binding Stability (HLA-A*0101 [1])	Proteasomal Cleavage of C-terminus, IP (JY) [3]	Proteasomal Cleavage of C-terminus, HH (HeLa) [4]	Proteasomal Cleavage of C-terminus, IP (RMA) [5]	other results
–	CC(C)C[C@H](NC(=O)[C@@H](N)CC(C)C)C(=O)NCC(=O)N[C@@H](CCCNC(=N)N)C(=O)N[C@@H](CC(N)=O)C(=O)N[C@@H](CO)C(=O)N[C@@H](Cc1ccccc1)C(=O)N[C@@H](CCC(=O)O)C(=O)N[C@H](C(=O)O)C(C)C [p53 264-272]	not well processed	–	–	–	–	–	–
–	YLDDRNTFRH [p53 205-214]	–	+ (Stable peptides displayed IC50 at 20 °C that deviated <2 times of the IC50 at 4° C.)	+ (Stable peptides displayed IC50 at 20 °C that deviated <2 times of the IC50 at 4° C.)	–	–	–	HLA binding Affinity (Table 5) (HLA-A*0101 [2]; HLA type A1): int; IC50 (HLA-A*0101 [2]; HLA-A*0101, IC50 category, read-out: Peptide Binding Affinity): 5 to 15 µM
–	CC(C)C[C@H](NC(=O)[C@H](CC(N)=O)NC(=O)CNC(=O)[C@H](CCC(=O)O)NC(=O)[C@@H](NC(=O)[C@@H](N)CCCNC(=N)N)C(C)C)C(=O)N[C@@H](CCCNC(=N)N)C(=O)N[C@H](C(=O)N[C@@H](CCC(=O)O)C(=O)N[C@@H](Cc1ccc(O)cc1)C(=O)O)C(C)C [p53 196-205]	–	+ (Stable peptides displayed IC50 at 20 °C that deviated <2 times of the IC50 at 4° C.)	+ (Stable peptides displayed IC50 at 20 °C that deviated <2 times of the IC50 at 4° C.)	–	–	–	–
6 h	CC(C)C[C@H](NC(=O)[C@@H](N)Cc1ccccc1)C(=O)N[C@@H](Cc1c[nH]cn1)C(=O)N[C@@H](CO)C(=O)NCC(=O)N[C@H](C(=O)N[C@@H](C)C(=O)N[C@@H](CCCCN)C(=O)N[C@@H](CO)C(=O)N[C@H](C(=O)O)C(C)C)[C@@H](C)O [p53 113-122]	–	–	–	+ (Major cleavage sites are defined as more than >1% of total digested peptide within the first hour)	+ (Major cleavage sites are defined as more than >1% of total digested peptide within the first hour)	+ (Major cleavage sites are defined as more than >1% of total digested peptide within the first hour)	HLA binding Stability (Table 5) (HLA-A*0201; value in hours): 6 h
–	CSCC[C@H](NC(=O)[C@H](CCCCN)NC(=O)[C@H](CC(N)=O)NC(=O)[C@H](CC(C)C)NC(=O)[C@H](C)NC(=O)[C@@H]1CCCN1C(=O)[C@H](CO)NC(=O)[C@H](Cc1ccc(O)cc1)NC(=O)[C@@H](N)[C@@H](C)O)C(=O)N[C@@H](Cc1ccccc1)C(=O)O [p53 125-134]	not/inefficiently processed	–	–	–	–	–	Peptide Binding Affinity (HLA-A*2401 [6]): high; IC50 (HLA-A*2401 [6]; read-out: Peptide Binding Affinity): < 5 µM; Peptide Binding Stability (HLA-A*2401 [7]): + (Stable peptides displayed IC50 at 20 °C that deviated <2 times of the IC50 at 4° C.)
<2 h	CC(C)[C@H](NC(=O)[C@H](CCCNC(=N)N)NC(=O)[C@@H](NC(=O)CNC(=O)[C@@H]1CCCN1C(=O)[C@@H]1CCCN1C(=O)[C@@H]1CCCN1C(=O)[C@@H](NC(=O)[C@@H](N)CO)[C@@H](C)O)[C@@H](C)O)C(=O)O [p53 149-157]	efficiently generated	–	–	+ (Major cleavage sites are defined as more than >1% of total digested peptide within the first hour)	+ (Major cleavage sites are defined as more than >1% of total digested peptide within the first hour)	+ (Major cleavage sites are defined as more than >1% of total digested peptide within the first hour)	capacity to form stable peptide-HLA-A*0201 complexes, in words (HLA-A*0201): weak; HLA binding Stability (Table 5) (HLA-A*0201; class symbol): − (Peptides of >50% of the initial complexes was lost within 2 hours were considered unstable)
–	CC(C)[C@H](NC(=O)[C@H](CO)NC(=O)[C@H](CCCCN)NC(=O)[C@H](C)NC(=O)[C@@H](NC(=O)CN)[C@@H](C)O)C(=O)N[C@H](C(=O)N[C@@H](CS)C(=O)N[C@H](C(=O)N[C@@H](Cc1ccc(O)cc1)C(=O)O)[C@@H](C)O)[C@@H](C)O [p53 117-126]	–	+ (Stable peptides displayed IC50 at 20 °C that deviated <2 times of the IC50 at 4° C.)	+ (Stable peptides displayed IC50 at 20 °C that deviated <2 times of the IC50 at 4° C.)	–	–	–	HLA binding Stability (Table 5) (HLA-A*0301; HLA type A3): − (The rest was designated as unstable peptide binding.); Peptide Binding Stability (HLA-A*0301; HLA-A*0301, IC50 at 20° C. vs 4° C.): − (The rest was designated as unstable peptide binding.)

Compound	Peptide Binding Stability (HLA-A*0201)	generation / processing by household and immunoproteasomes, in words (proteasome)	HLA binding Stability (Table 5) (HLA-A*0101 [1])	Peptide Binding Stability (HLA-A*0101 [1])	Proteasomal Cleavage of C-terminus, IP (JY) [3]	Proteasomal Cleavage of C-terminus, HH (HeLa) [4]	Proteasomal Cleavage of C-terminus, IP (RMA) [5]	other results
CC[C@H](C)[C@H](NC(=O)[C@H](CC(C)C)NC(=O)[C@H](Cc1c[nH]cn1)NC(=O)[C@H](CCC(N)=O)NC(=O)[C@@H]1CCCN1C(=O)[C@@H]1CCCN1C(=O)[C@H](C)NC(=O)[C@H](CC(C)C)NC(=O)CN)C(=O)N[C@@H](CCCNC(=N)N)C(=O)N[C@H](C(=O)O)C(C)C [p53 187-197]	6 h	efficiently generated	–	–	+ (Major cleavage sites are defined as more than >1% of total digested peptide within the first hour)	+ (Major cleavage sites are defined as more than >1% of total digested peptide within the first hour)	+ (Major cleavage sites are defined as more than >1% of total digested peptide within the first hour)	capacity to form stable peptide-HLA-A*0201 complexes, in words (HLA-A*0201): forms stable peptide-HLA complexes
